{"source": "paper PMC9757746", "about": "(Science Advances, 2022)", "assay_type_in_all_cases": "biochemical", "key": {"[1]": {"target": "T1, Cys4 (C. albicans CBS) (Candida albicans, UniProt Q59T95)", "T1 sequence (Q59T95 1-496)": "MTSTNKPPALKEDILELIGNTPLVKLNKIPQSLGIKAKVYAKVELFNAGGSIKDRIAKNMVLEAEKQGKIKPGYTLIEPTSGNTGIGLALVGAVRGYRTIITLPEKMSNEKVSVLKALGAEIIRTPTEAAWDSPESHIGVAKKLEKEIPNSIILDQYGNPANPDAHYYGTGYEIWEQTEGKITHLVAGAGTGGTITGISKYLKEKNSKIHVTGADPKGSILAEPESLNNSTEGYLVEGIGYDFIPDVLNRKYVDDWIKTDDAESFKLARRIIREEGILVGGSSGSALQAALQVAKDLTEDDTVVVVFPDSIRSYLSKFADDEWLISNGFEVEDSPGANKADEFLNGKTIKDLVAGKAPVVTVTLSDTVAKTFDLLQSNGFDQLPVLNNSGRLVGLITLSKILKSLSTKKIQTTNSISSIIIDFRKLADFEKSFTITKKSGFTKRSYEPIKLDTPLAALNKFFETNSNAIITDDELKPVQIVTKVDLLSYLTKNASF", "test": "H2S generation, lead acetate, A390", "settings": "10 mM L-cysteine, 10 mM L-homocysteine, 50 μM PLP, 200 mM Na/bicine pH 8.6, 37 °C; 10 min preincubation"}, "[2]": {"target": "T1, Cys4 (C. albicans CBS)", "test": "H2S generation, lead acetate, A390", "settings": "10 mM L-cysteine, 10 mM L-homocysteine, 50 μM PLP, 200 mM Na/bicine pH 8.6, 37 °C; screening hit"}, "[3]": {"target": "T2, cCBS-cc (Candida albicans, UniProt Q59T95)", "T2 sequence (Q59T95 1-319)": "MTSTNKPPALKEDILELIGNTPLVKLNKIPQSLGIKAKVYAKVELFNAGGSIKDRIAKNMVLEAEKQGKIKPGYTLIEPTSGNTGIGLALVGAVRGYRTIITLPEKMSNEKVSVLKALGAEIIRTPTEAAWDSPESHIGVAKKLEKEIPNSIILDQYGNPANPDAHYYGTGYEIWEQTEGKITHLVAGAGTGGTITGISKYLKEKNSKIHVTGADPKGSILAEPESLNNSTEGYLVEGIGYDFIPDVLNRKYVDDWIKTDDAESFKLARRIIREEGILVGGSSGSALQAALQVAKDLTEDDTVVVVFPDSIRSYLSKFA", "test": "H2S generation inhibition", "settings": "catalytic core"}, "[4]": {"target": "T3, Cys3 (C. albicans CSE) (Candida albicans, UniProt Q5A362)", "T3 sequence (Q5A362 1-399)": "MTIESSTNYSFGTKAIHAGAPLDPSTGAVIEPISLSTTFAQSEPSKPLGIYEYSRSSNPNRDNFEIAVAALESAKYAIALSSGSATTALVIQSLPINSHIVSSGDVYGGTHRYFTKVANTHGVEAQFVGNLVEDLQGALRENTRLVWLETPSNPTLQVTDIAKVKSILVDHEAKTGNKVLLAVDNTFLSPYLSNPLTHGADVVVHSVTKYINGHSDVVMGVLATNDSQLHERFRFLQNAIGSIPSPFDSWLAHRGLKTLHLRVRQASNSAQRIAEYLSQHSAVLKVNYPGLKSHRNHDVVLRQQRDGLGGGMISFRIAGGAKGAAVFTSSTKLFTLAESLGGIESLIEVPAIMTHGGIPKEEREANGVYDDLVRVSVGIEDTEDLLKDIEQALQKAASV", "test": "CSE activity inhibition", "settings": "weaker inhibition than of CBS"}, "[5]": {"target": "T4, human CBS (Homo sapiens, UniProt P35520)", "T4 sequence (P35520 1-551)": "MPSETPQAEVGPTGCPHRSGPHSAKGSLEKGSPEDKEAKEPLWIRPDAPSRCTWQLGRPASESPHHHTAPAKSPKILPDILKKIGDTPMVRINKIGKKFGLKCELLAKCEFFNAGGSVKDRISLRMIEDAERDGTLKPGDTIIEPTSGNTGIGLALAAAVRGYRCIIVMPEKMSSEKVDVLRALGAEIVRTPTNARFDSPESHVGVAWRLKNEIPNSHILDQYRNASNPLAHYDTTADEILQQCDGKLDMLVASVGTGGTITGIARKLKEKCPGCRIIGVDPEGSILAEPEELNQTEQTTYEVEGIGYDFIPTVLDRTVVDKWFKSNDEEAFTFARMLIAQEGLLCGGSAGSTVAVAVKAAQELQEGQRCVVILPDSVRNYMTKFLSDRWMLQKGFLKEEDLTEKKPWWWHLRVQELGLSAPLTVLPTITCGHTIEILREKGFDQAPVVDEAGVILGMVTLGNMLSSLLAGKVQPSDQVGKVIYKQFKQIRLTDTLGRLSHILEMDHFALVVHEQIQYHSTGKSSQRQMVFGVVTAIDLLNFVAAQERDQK", "test": "CBS activity inhibition", "settings": "weaker inhibition than of fungal CBS"}}, "data": [{"smiles": "NOCC(=O)O", "note": "[Aminooxyacetate]", "values": [{"measurement": "dose-dependent inhibition", "setting": "[1]", "value": "Dose-dependent inhibition of C. albicans CBS activity by PA and AOA"}]}, {"smiles": "Cc1cc(O)cc2oc(=O)c3c(O)cc(O)cc3c12", "note": "[alternariol]", "values": [{"measurement": "H2S generation, lead acetate, A390", "setting": "[2]", "value": "several hits that displayed much better activity than AOA, including PA"}]}, {"smiles": "C=C1C(=O)O[C@@H](CCCCCCCCCCCCC)[C@@H]1C(=O)O", "note": "[protolichesterinic acid]", "values": [{"measurement": "H2S generation inhibition", "setting": "[3]", "value": "still maintains potent ability to generate H2S and is inhibited by PA (fig. S24)"}, {"measurement": "CSE activity inhibition", "setting": "[4]", "value": "it inhibited CBS more potently than CSE (fig. S18)"}, {"measurement": "CBS activity inhibition", "setting": "[5]", "value": "fungal CBS more potently than human CBS (fig. S19)"}]}, {"smiles": "CC(=O)c1c(O)c(C)c(O)c2c1OC1=CC(=O)C(C(C)=O)C(=O)C12C", "note": "(stereo not drawn) [usnic acid]", "values": [{"measurement": "H2S generation, lead acetate, A390", "setting": "[2]", "value": "alternariol, and usnic acid (Fig. 5A and fig. S17)"}]}]}
